We go through 11 molecules from paper PMC6389498, “Control of Bacterial Virulence through the Peptide Signature of the Habitat” (Cell Reports, 2019).

pKd: −log10 of the molar value. Converted amounts (≈) assume the structure as drawn. Like-named read-outs stand apart in the source and are kept apart here. Residues, ends and D or L forms follow the SMILES beside them.

Data set [1] has as its system PrfA-dependent expression (PrfA-regulated hly promoter, luxABCDE reporter). The data set can be described thus: Phly-lux reporter of PrfA-dependent gene expression, opp (oppF::Tn) or ΔgshF mutant. It is filed as cell-based, Listeria monocytogenes. To be noted: for Rescue of PrfA phenotype of opp mutant: opp mutant in BHI-Amb, GSH 1 mM, L-cysteine at the CDM concentration. Here is the method: (§1) Listeria were routinely grown in porcine BHI (BD-Difco) and Escherichia coli in Luria-Bertani (LB) media, with 1% agar for solid cultures. For adsorbent-treated BHI agar, 1% (w/v) Amberlite XAD4 resin (Sigma-Aldrich) or 0.5% (w/v) activated charcoal powder (Merck) was added to the medium prior to autoclaving. For fluid Amberlite XAD4-treated BHI cultures (BHI-Amb), the resin was aseptically removed after autoclaving to avoid interference with optical density (OD) readings. Chemically defined CDM is a modification of the improved minimal medium (IMM) of [Phan-Thanh and Gormon (1997)], with the following composition: 6.56 g/L […], 30.96 g/L NaHPO4 7H2O, 0.41 g/L MgSO4, 88 mg/L ferric citrate, 0.1 g/L each of the (L-) amino acids leucine, isoleucine, valine, methionine, arginine, cysteine, histidine and tryptophan, 0.6 g/L L-glutamine, 2.5 mg/L adenine, 0.5 mg/L biotin, 5 mg/L riboflavin, 1 mg/L each of thiamine, pyridoxal, para-aminobenzoic acid, calcium panthothenate and nicotinamide, 5 μg/L thioctic acid and 4.5 g/L glucose. CDM was used freshly prepared from filter-sterilized stock solutions stored at 4°C (except cysteine, glutamine, biotin and ferric citrate solutions, kept at –20°C; and phosphates, MgSO4 and glucose, at room temperature). Antibiotic supplements (μg/mL) were as follows (lower values for Listeria, others for E. coli or both): erythromycin 5 or 250, chloramphenicol 7.5 or 20, spectinomycin 100, carbenicillin 100. All incubations were carried out at 37°C, with 180 rpm orbital shaking for fluid cultures, unless stated otherwise. GSH was kept in reduced state with 2 mM Tris[2-carboxyethyl]phosphine hydrochloride (TCEP) in the stock solution. Chemicals and oligonucleotides were from Sigma-Aldrich unless otherwise indicated.
PrfA-dependent gene expression was quantitatively analyzed throughout the L. monocytogenes growth curve using a chromosomally integrated luxABCDE operon under the control of the PrfA-regulated hly promoter ([Bron et al., 2006]). Overnight bacterial cultures were washed, resuspended in PBS and used to inoculate fresh medium to an initial OD at 600 nm (OD600) ≈0.02-0.05. Triplicate 200-μl aliquots were transferred to opaque 96-well plates with clear bottom (ThermoScientific) and OD600 and luminescence readings taken every 30 min during incubation in an automated microplate reader (FLUOstar Omega, BMG Labtech). Bioluminescence values were normalized to growth at each time point. […] The number of transcripts was calculated by interpolation of threshold cycle (CT) values of cDNA amplifications in a standard regression curve generated from samples of known DNA concentration. […]

Data set [2] deals with L. monocytogenes P14. It is filed as cell-based, Listeria monocytogenes.
For data set [3], the system named is PrfA-dependent expression (PrfA-regulated hly promoter, luxABCDE reporter). The data set can be described thus: Phly-lux reporter of PrfA-dependent gene expression, wild-type P14. Format: cell-based, Listeria monocytogenes. To be noted: for PrfA downregulation (repression of Phly-lux expression): wild-type P14 in regular CDM (0.8 mM Cys), 1 mM peptide vs no-peptide control, 37°C, maximum normalized luminescence, means of three triplicate experiments. The protocol: as §1
PrfA-dependent gene expression was quantitatively analyzed throughout the L. monocytogenes growth curve using a chromosomally integrated luxABCDE operon under the control of the PrfA-regulated hly promoter ([Bron et al., 2006]). Overnight bacterial cultures were washed, resuspended in PBS and used to inoculate fresh medium to an initial OD at 600 nm (OD600) ≈0.02-0.05. Triplicate 200-μl aliquots were transferred to opaque 96-well plates with clear bottom (ThermoScientific) and OD600 and luminescence readings taken every 30 min during incubation in an automated microplate reader (FLUOstar Omega, BMG Labtech). Bioluminescence values were normalized to growth at each time point. RT-qPCR transcription analysis was performed on total RNA samples extracted from mid-exponential L. monocytogenes cultures (OD600 ≈0.2-0.3 for BHI media) using RNeasy mini kit (QIAGEN) as previously described ([Deshayes et al., 2012]). The number of transcripts was calculated by interpolation of threshold cycle (CT) values of cDNA amplifications in a standard regression curve generated from samples of known DNA concentration. Expession data were normalized by dividing the number of transcripts of the test gene by the geometric mean of the number of transcripts of the reference housekeeping genes rpoB and ldh ([Deshayes et al., 2012]). See Table S3 for oligonucleotides used.

In data set [4] the target is T1, PrfA (Listeria monocytogenes serovar 1/2a, UniProt P22262). To be noted: read-out: Kd for PrfA; ref Reniere et al., 2015; cited from earlier work.
Data set [5] addresses T1, PrfA. Nature of the data set: biochemical. To be noted: for Binding to PrfA detected by ITC: ITC with purified PrfA, free L-Leu at 1 mM. Details: His tag (inferred from pET28a vector and nickel-column purification); made in house; host or cells: E. coli BL21. Format: binding.
For data set [6], the system named is L. monocytogenes P14. The data set can be described thus: Fosfomycin MIC. It is filed as cell-based. To be noted: Listeria monocytogenes.
Data set [7] concerns the target T2, PrfA^WT binding to the PplcA/hly PrfA box (Listeria monocytogenes serovar 1/2a, UniProt P22262).
T2 construct: His tag (inferred from pET28a vector and nickel-column purification); made in house; host or cells: E. coli BL21
The data set can be described thus: Biolayer interferometry of PrfA-DNA binding, PrfAWT. To be noted: BLI, PrfA^WT-ligand mixes at 1:100 molar ratio, 50 mM Tris-Cl pH 7.5, 300 mM NaCl, 0.05 Tween 20; at least two experiments. Format: biochemical. Here is the method:
Bacterial pellets of IPTG-induced cultures of E. coli BL21(pET28aprfA^WT) ([Deshayes et al., 2012]; Table S2) were resuspended in lysis buffer (50 mM Tris pH 7.5, 300 mM NaCl, 20 mM imidazole) and lysed with an EmulsiFlex homogenizer. After affinity chromatography on a HiTrap HP nickel column in an AKTA system (GE Healthcare), PrfA-containing fractions were pooled together, loaded on a HiTrap Heparin HP column and then on a Superdex 75 Gel Filtration column to remove nucleic acid and protein contaminants. The buffer used for the gel filtration and storage was 50 mM Tris pH 7.5, 300 mM NaCl. Fluorescence-based thermal shift assays were performed in a real-time PCR instrument (Bio-Rad) using 25 μL triplicate samples containing 10 μΜ recombinant PrfA, 5 × SyprOrange (Invitrogen) and 1 mM synthetic peptide. Isothermal Titration Calorimetry (ITC) experiments were performed in a GE MicroCal iTC200 system (GE Healthcare). PrfA was changed to 50 mM Tris pH 7.5, 500 mM NaCl buffer and 100 μΜ of PrfA protein injected into the cell. […] Data were analyzed with the inbuilt software of the ITC apparatus using a one-site model. The specific DNA-binding activity of PrfA was measured by biolayer interferometry (BLI) with a FortéBio Octet^RED 96 apparatus using a biotinylated double-stranded oligonucleotide containing the PplcA/hly PrfA box (Table S3). […]
In general terms: BLI is a label-free optical method that tracks binding on a fibre tip over time.

Data set [8] has as its target T1, PrfA. It is filed as binding. Further details: His tag (inferred from pET28a vector and nickel-column purification); made in house; host or cells: E. coli BL21.

T1 sequence (P22262 whole entry): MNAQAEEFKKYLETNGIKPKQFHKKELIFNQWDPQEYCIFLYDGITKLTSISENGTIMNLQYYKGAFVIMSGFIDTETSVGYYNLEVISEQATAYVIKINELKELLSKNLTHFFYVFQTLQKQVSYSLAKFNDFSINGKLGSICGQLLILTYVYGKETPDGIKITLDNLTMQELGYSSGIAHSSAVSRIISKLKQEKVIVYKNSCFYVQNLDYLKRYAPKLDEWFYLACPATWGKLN
T2 sequence (P22262 whole entry): as above

In the case of `N[C@@H](CS)C(=O)O` [Cys, L-cysteine], the “Rescue of PrfA phenotype of opp mutant” value in data set [1] is recorded as “Rescue of opp mutant”. In data set [2] (CDM, wild-type and opp bacteria), the “Minimum concentration for eugonic growth” value is given as “≈ 0.2 mM”. The “Concentrations that inhibit P14 growth” value in data set [2] (Cys-deplete CDM supplemented with increasing free Cys) was not below 12.8 mM. In addition, the “Amount required to completely cancel LL/LLL-mediated repression” value in data set [3] (wild-type in CDM with limiting Cys (0.1 mM), against fixed 0.25 mM Leu peptide) was found to be 6.4 mM.

As to `N[C@@H](CCC(=O)N[C@@H](CS)C(=O)NCC(=O)O)C(=O)O` [GSH, γ-L-Glutamyl-L-cysteinylglycine], in data set [4], the pKd (in general, the negative decadic logarithm of the Kd, by convention in mol/L) was approximately 2.40. Also, in data set [1], the “Rescue of PrfA phenotype of opp mutant” value is “fully restored the parental PrfA^+ phenotype”. Besides, the “Reversal of PrfA– phenotype of ΔgshF mutant” value in data set [1] (ΔgshF in BHI-Amb, 1 mM exogenous GSH (even at 8 mM, data not shown)) is “did not revert the PrfA^– phenotype”. In data set [5], the “Binding to PrfA detected by ITC” value is listed as “undetectable by ITC”.

For the molecule `CC(C)C[C@H](NC(=O)[C@@H](N)CC(C)C)C(=O)O` [LL, L-leucylleucine], in data set [5], the pKd was approximately 4.60.

`CC(C)C[C@H](NC(=O)[C@H](CC(C)C)NC(=O)[C@@H](N)CC(C)C)C(=O)O` [LLL] (H-Leu-Leu-Leu-OH) showed a pKd in data set [5] of approximately 4.60.

Regarding `C[C@@H]1O[C@@H]1P(=O)(O)O` [fosfomycin], in data set [6], the MIC – broadly, the least concentration at which growth counts as inhibited – lay within 12 to 32 µg/mL (≈ 86.9 to 232 µM).

For `CC(C)C[C@H](N)C(=O)O` [free Leu, leucine], the “Inhibition of PrfA-DNA binding” value in data set [7] is recorded as “not”. In addition, the “PrfA downregulation (repression of Phly-lux expression)” value (“PrfA downregulation” below) in data set [3] is on record as “not inhibitory”. For the same molecule, the “Binding to PrfA detected by ITC” value in data set [5] is “no binding was detected”.

With “ASSLLLVG [listerial derived octapeptide, putative peptide pheromone pPplA]”, the “PrfA downregulation” value in data set [3] was found to be 88%. For the same molecule, the “Change in melting temperature (Tm) of purified PrfA” value in data set [8] was “significant drop in the Tm”.

Turning to KLLLLK [known listerial Opp substrate], in data set [3], the “PrfA downregulation” value worked out at 96%.

As for “RGDC [Cys-containing synthetic tetrapeptide transported by Opp]”, the “Growth and PrfA-dependent expression with peptide as Cys source” value in data set [1] (opp mutant, CDM without Cys supplemented with 0.32 mM RGDC peptide) is “not”; in data set [3] (wild-type, CDM without Cys supplemented with 0.32 mM RGDC peptide), “promoted growth and PrfA-dependent expression”. In data set [3] (wild-type in CDM with limiting Cys (0.1 mM), against fixed 0.25 mM LL or LLL), the “Concentration that completely cancelled LL/LLL-mediated repression” value was 80 µM.

Consider RKDVY [known listerial Opp substrate], for which the “PrfA downregulation” value in data set [3] is “no effect”.

As for “SQNPYPIV [known listerial Opp substrate]”, the “PrfA downregulation” value in data set [3] is 59%.
